{
  "source": "patent US20110071197A1",
  "about": "“BIS-ARYL COMPOUNDS FOR USE AS MEDICAMENTS” (priority 2008, published 2011)",
  "data": [
    {"molecular_target": "T1, Recombinant human LTC4 synthase (Homo sapiens, UniProt Q16873)", "T1 construct": "made in house; host or cells: Pichia pastoris", "T1 sequence (Q16873 1-150)": "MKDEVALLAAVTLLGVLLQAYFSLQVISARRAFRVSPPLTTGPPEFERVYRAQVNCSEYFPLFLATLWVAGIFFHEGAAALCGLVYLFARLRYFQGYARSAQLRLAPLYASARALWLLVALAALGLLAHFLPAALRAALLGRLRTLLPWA", "test": "LTC4 synthase in vitro assay (HTRF detection of LTC4)", "type": "biochemical", "settings": "compound concentration 3 μM; HTRF method", "method_in_brief": "(§1)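 Pichia-expressed recombinant human LTC4 synthase at 0.5 μg/ml total protein in PBS pH 7.4 with 5 mM GSH, preincubated 10 min at RT with inhibitor (10 μM final). LTA4 (2.5 μM final) was then added for 5 min at RT. LTC4 formed was read by HTRF.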", "units": {"inhibition at 3 µM": "%"}, "values": [
      {"smiles": "CCOc1ccc(C(=O)Nc2ccc(Oc3ccc(NC(=O)c4ccccc4)cc3)cc2C(=O)O)cc1", "note": "[8:11, 5-(4-benzoylaminophenoxy)-2-(4-ethoxybenzoylamino)-benzoic acid]", "inhibition at 3 µM": 70}
    ]},
    {"molecular_target": "T1, Recombinant human LTC4 synthase", "test": "LTC4 synthase in vitro assay (HTRF detection of LTC4)", "type": "biochemical", "settings": "total concentration of title compound in the assay 10 μM; HTRF method", "method_in_brief": "as §1", "units": {"inhibition at 10 µM": "%", "% inh.": "%"}, "values": [
      {"smiles": "CCCCOc1ccc(S(=O)(=O)Nc2ccc(Oc3cccc(NCc4cccc(Cl)c4Cl)c3)cc2C(=O)O)cc1", "note": "[23:3, 2-(4-Butoxybenzenesulfonylamino)-5-[3-(2,3-dichlorobenzylamino)-phenoxy]benzoic acid]", "inhibition at 10 µM": 98},
      {"smiles": "CC(C)Oc1ccc(C(=O)Nc2ccc(Oc3ccc(NC(=O)c4cc(Cl)ccc4O)c(CC(=O)O)c3)cc2C(=O)O)cc1", "note": "[6:3, 5-[3-carboxymethyl-4-(5-chloro-2-hydroxybenzoylamino)phenoxy]-2-(4-isopropoxybenzoyl-amino)benzoic acid]", "inhibition at 10 µM": 100},
      {"smiles": "Cc1c(Cl)cccc1S(=O)(=O)Nc1ccc(Oc2ccc(Nc3ccc(F)c(F)c3)c(C(=O)O)c2)cn1", "note": "[Example 33:2, 5-(6-(3-Chloro-2-methylphenylsulfonamido)pyridin-3-yloxy)-2-(3,4-difluorophenylamino)benzoic acid]", "inhibition at 10 µM": 99},
      {"smiles": "O=C(O)Cc1cc(Oc2ccc(NC(=O)c3ccccc3)cc2)ccc1NC(=O)c1cccc(Cl)c1Cl", "note": "[17:2, [5-(4-benzoylamino-phenoxy)-2-(2,3-dichloro-benzoylamino)-phenyl]-acetic acid]", "inhibition at 10 µM": 99},
      {"smiles": "COc1ccc(S(=O)(=O)Nc2ccc(Oc3ccc(N(C)C(=O)c4ccc(C(C)(C)C)cc4)cc3)cc2C(=O)O)cc1", "note": "[21:3, 5-{4-[(4-t-Butyl-benzoyl)-methyl-amino]-phenoxy}-2-(4-methoxy-benzenesulfonylamino)-benzoic acid]", "inhibition at 10 µM": 99},
      {"smiles": "CCCCc1ccc(C(=O)Nc2ccc(Oc3ccc(N(C(=O)c4ccc(CCCC)cc4)c4ccc(F)cc4)cc3)cc2C(=O)O)cc1", "note": "[12:3, 5-(4-((N-4-fluorophenyl)4-butylbenzamido)phenoxy)-2-(4-butylbenzamido)benzoic acid]", "inhibition at 10 µM": 83},
      {"smiles": "O=C(Nc1ccc(C(F)(F)F)cc1)Nc1ccc(Oc2ccc(S(=O)(=O)Nc3ccc(Cl)cc3)cc2)cc1C(=O)O", "note": "[25:1, 5-[4-(4-Chlorophenylsulfamoyl)-phenoxy]-2-[3-(4-trifluoromethyl-phenyl)ureido]benzoic acid]", "inhibition at 10 µM": 98},
      {"smiles": "CCCCOc1ccc(S(=O)(=O)Nc2ccc(Oc3cccc(CC(=O)NS(=O)(=O)c4cccc(Cl)c4F)c3)cc2C(=O)O)cc1", "note": "[26:5, 2-(4-Butoxybenzenesulfonylamino)-5-{3-[2-(3-chloro-2-fluorobenzene-sulfonylamino)-2-oxoethyl]phenoxy}-benzoic acid]", "inhibition at 10 µM": 99},
      {"smiles": "CCCCc1ccc(C(=O)Nc2ccc(Oc3ccc(NC(=O)c4ccc(F)c(Cl)c4)c(C(=O)O)c3)cc2C(=O)O)cc1", "note": "[2:7, 5-[3-carboxy-4-(3-chloro-4-fluorobenz-amido)-phenyloxy]-2-(4-butylbenz-amido)benzoic acid]", "% inh.": 100},
      {"smiles": "O=C(O)c1cc(Oc2ccc(Nc3ccc(F)c(F)c3)c(C(=O)O)c2)ccc1Nc1ccc(F)c(F)c1", "note": "[1:3, 3,3′-oxybis[6-(3,4-difluorophenyl-amino)benzoic acid]]", "inhibition at 10 µM": 100},
      {"smiles": "COc1ccc(S(=O)(=O)N(C)c2ccc(Oc3ccc(NC(=O)c4ccccc4Cl)c(C(=O)O)c3)cc2)cc1", "note": "[11:22, 2-(2-Chloro-benzoylamino)-5-{4-[(4-methoxybenzenesulfonyl)-methylamino]phenoxy}benzoic acid]", "inhibition at 10 µM": 95},
      {"smiles": "O=C(Nc1ccc(Oc2cccc(Oc3ccc(F)c(F)c3)c2)cc1C(=O)O)c1ccc(OC2CCCC2)cc1", "note": "[Example 28:2, 2-(4-Cyclopentyloxybenzoylamino)-5-[3-(3,4-difluorophenoxy)phenoxy]benzoic acid]", "inhibition at 10 µM": 94},
      {"smiles": "CCCCOc1ccc(S(=O)(=O)Nc2ccc(Oc3cccc(C(=O)NS(=O)(=O)c4ccc(F)c(F)c4)c3)cc2C(=O)O)cc1", "note": "[20:5, 2-(4-Butoxy-benzenesulfonylamino)-5-[3-(3,4-difluoro-benzenesulfonyl-aminocarbonyl)-phenoxy]-benzoic acid]", "inhibition at 10 µM": 97},
      {"smiles": "CCCCOc1ccc(S(=O)(=O)Nc2ccc(Oc3cccc(NCc4cccc(OC)c4OC)c3)cc2C(=O)O)cc1", "note": "[23:2, 2-(4-Butoxybenzenesulfonylamino)-5-[3-(2,3-dimethoxybenzylamino)-phenoxy]benzoic acid]", "inhibition at 10 µM": 99},
      {"smiles": "O=C(NS(=O)(=O)c1ccc(F)c(F)c1)c1cccc(Oc2ccc(Nc3ccc(Cl)cc3)c(C(=O)O)c2)c1", "note": "[20:2, 2-(4-Chloro-phenylamino)-5-[3-(3,4-difluoro-benzenesulfonylamino-carbonyl)-phenoxy]-benzoic acid]", "inhibition at 10 µM": 96},
      {"smiles": "COc1ccc(S(=O)(=O)N(C)c2ccc(Oc3ccc(NC(=O)c4cccc(Cl)c4)c(C(=O)O)c3)cc2)cc1", "note": "[11:14, 2-(3-Chloro-benzoylamino)-5-{4-[(4-methoxy-benzenesulfonyl)-methyl-amino]-phenoxy}-benzoic acid]", "inhibition at 10 µM": 100},
      {"smiles": "CCCCc1ccc(C(=O)Nc2ccc(Oc3ccc(NC(=O)c4ccc(C(F)(F)F)cc4F)cc3)cc2CC(=O)O)cc1", "note": "[17:4, {2-(4-butyl-benzoylamino)-5-[4-(2-fluoro-4-trifluoromethyl-benzoylamino)-phenoxy]-phenyl}-acetic acid]", "inhibition at 10 µM": 79},
      {"smiles": "O=C(Nc1ccc(Oc2ccc([N+](=O)[O-])cc2)cc1C(=O)O)c1ccc(Cl)cc1Cl", "note": "[8:2, 2-(2,4-dichlorobenzamido)-5-(4-nitrophenoxy)benzoic acid]", "inhibition at 10 µM": 93},
      {"smiles": "COc1ccc(S(=O)(=O)N(C)c2ccc(Oc3ccc(NC(=O)c4cc(Cl)cnc4Cl)c(C(=O)O)c3)cc2)cc1", "note": "[11:21, 2-[(2,5-Dichloropyridine-3-carbonyl)amino]-5-{4-[(4-methoxybenzenesulfonyl)-methylamino]phenoxy}benzoic acid]", "inhibition at 10 µM": 96},
      {"smiles": "CCCCOc1ccc(S(=O)(=O)Nc2ccc(Oc3cccc(NCc4cccc(Cl)c4F)c3)cc2C(=O)O)cc1", "note": "[23:4, 2-(4-Butoxybenzenesulfonylamino)-5-[3-(3-chloro-2-fluorobenzylamino)-phenoxy]benzoic acid]", "inhibition at 10 µM": 99},
      {"smiles": "O=C(O)c1cc(Oc2ccc(NS(=O)(=O)c3ccc(OC(F)(F)F)cc3)cc2)ccc1NS(=O)(=O)c1ccc(OC(F)(F)F)cc1", "note": "[Example 30:3, 2-(4-Trifluoromethoxybenzenesulfonylamino)-5-[4-(4-trifluoromethoxybenzene-sulfonylamino)phenoxy]benzoic acid]", "inhibition at 10 µM": 100},
      {"smiles": "CCCCOc1ccc(S(=O)(=O)Nc2ccc(Oc3ccc(NC(=O)c4ccccc4)cc3)cc2C(=O)O)cc1", "note": "[21:4, 5-(4-benzoylamino-phenoxy)-2-(4-butoxy-benzenesulfonylamino)-benzoic acid]", "inhibition at 10 µM": 100},
      {"smiles": "O=C(O)c1cc(Nc2ccc(F)c(F)c2)cc(Oc2ccc(NC(=O)c3cccc(Cl)c3)cc2)c1", "note": "[18:5, 3-[4-(3-Chloro-benzoylamino)-phenoxy]-5-(3,4-difluoro-phenylamino)-benzoic acid]", "inhibition at 10 µM": 100},
      {"smiles": "CCCCc1ccc(C(=O)Nc2ccc(Oc3ccc(NC(=O)c4ccc(Cl)cc4Cl)c(CC(=O)O)c3)cc2)cc1", "note": "[17:5, [5-[4-(4-butyl-benzoylamino)-phenoxy]-2-(2,4-dichloro-benzoylamino)-phenyl]-acetic acid]", "inhibition at 10 µM": 94},
      {"smiles": "CCCCc1ccc(C(=O)Nc2ccc(Oc3ccc(NS(=O)(=O)c4ccccc4)c(C(=O)O)c3)cc2C(=O)O)cc1", "note": "[Example 7:2]", "% inh.": 100},
      {"smiles": "O=C(Nc1ccc(Sc2ccc(NC(=O)c3ccc(C(F)(F)F)cc3)c(C(=O)O)c2)cc1C(=O)O)c1ccc(C(F)(F)F)cc1", "note": "[13:3, 2-(4-(trifluoromethyl)-benzamido)-5-((4-(4-(trifluoromethyl)benzamido)-3-carboxyphenyl)sulfanyl)benzoic acid]", "inhibition at 10 µM": 99},
      {"smiles": "O=C(O)c1cc(Oc2ccc(Nc3ccc(F)c(F)c3)c(C(=O)O)c2)ccc1Nc1ccc(C(F)(F)F)nc1", "note": "[1:5, 5-[3-carboxy-4-(3,4-difluoro-phenylamino)phenyloxy]-2-(6-trifluoromethylpyridin-3-yl-amino)-benzoic acid]", "inhibition at 10 µM": 99},
      {"smiles": "O=C(O)c1cc(Oc2ccc(Nc3ccc(Cl)cc3)cc2)ccc1Nc1ccc(Cl)cc1", "note": "[12:5, 2-(4-chloro-phenylamino)-5-[4-(4-chloro-phenylamino)-phenoxy]-benzoic acid]", "inhibition at 10 µM": 96},
      {"smiles": "O=C(O)Cc1cc(Oc2ccc(NC(=O)c3ccc(C(F)(F)F)cc3F)c(C(=O)O)c2)ccc1NC(=O)c1cc(F)c(Cl)cc1F", "note": "[6:5, 5-[3-carboxy-methyl-4-(4-chloro-2,5-difluoro-benzoylamino)-phenoxy]-2-(2-fluoro-4-trifluoro-methylbenzoylamino)-benzoic acid]", "% inh.": 96},
      {"smiles": "O=C(Nc1ccc(S(=O)(=O)c2ccc(NC(=O)c3cccc(Cl)c3)c(C(=O)O)c2)cc1C(=O)O)c1cccc(Cl)c1", "note": "[16:1, 2-(3-chlorobenzamido)-5-(4-(3-chlorobenzamido)-3-carboxyphenylsulfonyl)-benzoic acid]", "inhibition at 10 µM": 98},
      {"smiles": "CCCCc1ccc(C(=O)Nc2ccc(Oc3ccc(NC(=O)c4ccc(Cl)cc4Cl)c(C(=O)O)c3)cc2C(=O)O)cc1", "note": "[2:5, 5-[3-carboxy-4-(4-chloro-6-chloro-benzamido)-phenyloxy]-2-(4-butylbenz-amido)benzoic acid]", "% inh.": 100},
      {"smiles": "CC(C)(C)c1ccc(C(=O)Nc2ccc(Oc3ccc(NC(=O)c4cccnc4Cl)c(C(=O)O)c3)cc2)cc1", "note": "[8:16, 5-[4-(4-tert-Butylbenzoyl-amino)phenoxy]-2-[(2-chloro-pyridine-3-carbonyl)-amino]benzoic acid]", "inhibition at 10 µM": 99},
      {"smiles": "CCCCc1ccc(C(=O)Nc2ccc(Oc3ccc(NC(=O)c4ccc(CCCC)cc4)c(C(=O)O)c3)cc2C(=O)O)cc1", "note": "[4:1, 5-[3-carboxy-4-(4-butyl-benzamido)phenyloxy]-2-(4-butylbenzamido)benzoic acid]", "inhibition at 10 µM": 99}
    ]}
  ]
}
